According to patent US10888864B2, “Electrochemical metabolic activity detecting device” (The Governing Council of the University of Toronto, priority 2014, dated 2021):
Values after ≈ are worked out from the molar mass of the structure shown.

What was measured:
[1] = test system: K. pneumoniae; test: time required for antibiotics to hinder metabolic activity (resazurin fluorescence); assay type: cell-based, Klebsiella pneumoniae; details: K. pneumoniae 1×10^5 cfu/μL, antibiotic 100 μg/mL, LB media, 1 mM resazurin, 37° C., FIG. 16
Method: In order to choose a suitable incubation period for the susceptibility test, the time required for the antibiotics to begin inhibiting bacterial metabolic activity was investigated. […] The increase in fluorescence induced by the conversion of resazurin by metabolically active bacteria was recorded.

[2] = test system: E. coli (UPEC); test: on-chip electrochemical (resazurin) antibiotic susceptibility assay in undiluted urine; assay type: cell-based, Escherichia coli
Method: (§1) The performance of the example device for electrochemical detection in urine was investigated. Human urine (BioreclamationlVT) was centrifuged at 5000 g for 5 min to remove large particulates. E. coli and K. pneumoniae were diluted to 100 cfu/μL and spiked in the urine. Samples (200 μL) were introduced at 20 μL/min. […] Air was flushed through the device to form the wells followed by FC-40 (200 μL) (Sigma Aldrich, St. Louis, Mo.). Thus the total volume of all solutions introduced is 600 μL which requires 30 min to process at 20 μL/min. The device was incubated in a water bath at 37° C. for 1 hour. 10 minutes were required to scan the leads. Thus the total time for the assay from sample introduction to readout was 1 hour and 40 minutes.
(§2) Other studies were carried out to assess the suitability of the example device to rapidly determine the antibiotic resistance profile of bacteria in undiluted urine.
(§3) E. coli (UPEC) and K. pneumoniae present at 100 cfu/μL in undiluted urine were introduced into the example device. After capture, a culture medium, resazurin, and either ampicillin or ciprofloxacin were introduced. FIGS. 5C and 5D show the electrochemical signal obtained as a function of antibiotic concentration after a 1 hour incubation at 37° C.
As this strain produces a beta lactamase, resistance to ampicillin, a beta-lactam antibiotic is expected. […]

[3] = test system: K. pneumoniae; test: as above; assay type: cell-based, Klebsiella pneumoniae; details: K. pneumoniae 100 cfu/μL in undiluted urine, 1 hour incubation at 37° C., FIG. 5D
Method: as §1, §2, §3
(§4) As this strain produces a beta lactamase, resistance to ampicillin, a beta-lactam antibiotic is expected.

[4] = test system: E. coli; test: standard microdilution assay with a 24 hour incubation; assay type: cell-based, Escherichia coli; details: absorbance at 600 nm, FIG. 5A
Method: (§5) An antibiotic susceptibility microdilution assay was also performed using the example device. […] After 24 hours, the absorbance at 600 nm was measured.
as §4

[5] = test system: K. pneumoniae; test: as above; assay type: cell-based, Klebsiella pneumoniae; details: FIG. 5B; for MIC90: Klebsiella pneumoniae, 24 hour incubation
Method: as §5, §4

[6] = test system: E. coli; test: on-chip electrochemical antibiotic susceptibility assay in unpurified urine; assay type: cell-based, Escherichia coli; details: E. coli 100 cfu/μL in undiluted unpurified urine, 10 μm pre-filter, 37° C. for 1 hour, FIG. 5E
Method: The performance of the example device was also investigated for electrochemical detection in unpurified urine. E. coli were diluted to 100 cfu/μL and spiked in the unpurified human urine (BioreclamationlVT). The spiked urine (200 μL) was passed through a 10 μm filter to remove large particulates and directly introduced at 20 μL/min into the chip. […] Air was flushed through the device to form the wells followed by FC-40 (Sigma Aldrich, St. Louis, Mo.). The device was incubated in a water bath at 37° C.
A series of experiments were also performed to determine the antibiotic susceptibility of bacteria in unpurified urine. […] Currents are normalized to the maximum value. Error bars represent standard error.
E. coli were spiked directly into undiluted and unpurified urine at 100 cfu/μL. The sample was passed through a 10 μm filter that removed large particulates while allowing bacteria to pass. FIG. 18 illustrates the effect of pre-filter size on recovery of bacteria spiked in undiluted urine. […] No appreciable signal change was found when using a blank control sample of unpurified urine (see FIG. 4, discussed above).

Row | SMILES | fluorescence signal (resazurin conversion) in presence of antibiotic [1] | effect on metabolism of E. coli (electrochemical scan) ([2]; 1 μg/mL antibiotic, E. coli in urine at 100 CFU/μL, 1 mM resazurin, 60 min at 37° C., FIG. 19B) | electrochemical signal with increasing antibiotic concentration / susceptibility call [3] | minimum antibiotic concentration that inhibits 90% of bacterial growth (MIC90) [4] | susceptibility call by standard microdilution assay [5] | MIC90 [5] | antibiotic concentration at which the bacteria are susceptible (electrochemical signal) ([2]; E. coli (UPEC) 100 cfu/μL in undiluted urine, 1 hour incubation at 37° C., FIG. 5C) | antibiotic concentration at which E. coli are susceptible (electrochemical signal) [6]
1 | CC1(C)S[C@@H]2[C@H](NC(=O)[C@H](N)c3ccccc3)C(=O)N2[C@H]1C(=O)O [ampicillin] | fluorescence increases | insufficient to inhibit the metabolism | approximately constant | 16 µg/mL | resistant | > 100 µg/mL |  | 
2 | O=C(O)c1cn(C2CC2)c2cc(N3CCNCC3)c(F)cc2c1=O [ciprofloxacin] |  |  | susceptible | less than 0.1 μg/mL | susceptible | 2 µg/mL (≈ 6.04 µM) | above 1 μg/mL | ≥ 1 µg/mL
